Experimental data from US10689384B2, “Imidazo[1,2-a]quinoxalines and derivatives thereof for the treatment of cancer” (Universite de Montpellier, priority 2014, dated 2020).

Key:
human cancer cell lines = assay: In vitro cytotoxicity study, Summarized results 2 (cell line not given); format: cell-based; conditions: Table 4, Summarized results 2, cell line not stated
Procedure: (§1) The goal of this protocol is to study the effects of the compounds on the proliferation of various human cancer cell lines in order to evaluate the EC50 and their activity in cellulo.
(§2) The cells are seeded the day before treatment in 96 well plates. Each compound concentration is tested in triplicate. A 96 well plate can contain 3 compounds.
(§3) Stock solutions of the tested compounds are prepared at 10 mM in 100% DMSO and stored at […].
(§4) The analysis is carried out by using the GraphPad PRISM 5.0 software.
(§5) Day 1: the cells are seeded one day before treatment with the compounds in 96 well plates. Cell suspensions for each cancer cell line are prepared with a specific density in a specific culture medium (see preceding table). Next, 100 µL of cell suspension is distributed per well (1×96 well plate per cell line).
(§6) Day 2: 24 hours later, the […] compounds or controls (DMSO) are added to the cells ([…] of a compound solution in its specific medium with a final DMSO concentration of 0.15%).
(§7) Each compound concentration is tested in triplicate (6 concentrations between 10^−9 M and 10^−5 M per compound). The cells are incubated at 37° C. for 72 hours with no new treatment.
(§8) Day 5: 15 minutes before incubation of the cells with MTT (3-[4,5-dimethylthiazol-2-yl]-2,5-diphenyltetrazolium bromide), 10% SDS is added to the control wells to obtain a final concentration of 1%. The positive control of inhibition of proliferation is 1% SDS.
(§9) Once the medium is removed, 100 µL of a solution of MTT in fresh medium is added to each well (10 μL of 10×MTT solution at 5 mg/mL in PBS +[…] of fresh medium) and the plates are incubated for 4 hours at 37° C.
(§10) The MTT reaction is quenched and the medium is homogenized by addition of […] of 10% SDS/0.01 M HCl solution placed in each well. The medium is incubated for 2 hours at 37° C. before measuring its absorbance. Absorbance is measured at 570 nm.

HepG2 = assay: In vitro cytotoxicity study, inhibition of cell growth (MTT); format: cell-based; conditions: Homo sapiens, HepG2, liver, 72 hours
Procedure: as §1, §2
(§11) Cell suspensions for each cancer cell line are prepared in culture medium with a specific density of the specific cell (see the following table). Then, 100 µL of cell suspension is spread per well (plate per one cell line).
as §3, §4, §5, §6, §7, §8, §9, §10

PF382 = assay: as above; format: cell-based; conditions: Homo sapiens, PF-382, PF382, lymphoid, 72 hours
Procedure: as §1, §2, §11, §3, §4, §5, §6, §7, §8, §9, §10

Calu-1 = assay: as above; format: cell-based; conditions: Homo sapiens, Calu-1, lung, 72 hours
Procedure: as §1, §2, §11, §3, §4, §5, §6, §7, §8, §9, §10

PC-3 = assay: as above; format: cell-based; conditions: Homo sapiens, PC-3, prostate, 72 hours
Procedure: as §1, §2, §11, §3, §4, §5, §6, §7, §8, §9, §10

T-47D = assay: as above; format: cell-based; conditions: Homo sapiens, T47D, breast, 72 hours
Procedure: as §1, §2, §11, §3, §4, §5, §6, §7, §8, §9, §10

LoVo = assay: as above; format: cell-based; conditions: Homo sapiens, colon, 72 hours
Procedure: as §1, §2, §11, §3, §4, §5, §6, §7, §8, §9, §10

Capan-1 = assay: as above; format: cell-based; conditions: Homo sapiens, Capan-1, pancreas, 72 hours
Procedure: as §1, §2, §11, §3, §4, §5, §6, §7, §8, §9, §10

MEWO = assay: as above; format: cell-based; conditions: Homo sapiens, melanoma, 72 hours
Procedure: as §1, §2, §11, §3, §4, §5, §6, §7, §8, §9, §10

COLO-205 = assay: as above; format: cell-based; conditions: Homo sapiens, COLO-205, colon, 72 hours
Procedure: as §1, §2, §11, §3, §4, §5, §6, §7, §8, §9, §10

AsPC-1 = assay: as above; format: cell-based; conditions: Homo sapiens, ASPC1, AsPC-1, pancreas, 72 hours
Procedure: as §1, §2, §11, §3, §4, §5, §6, §7, §8, §9, §10

A375 = assay: as above; format: cell-based; conditions: Homo sapiens, A-375, A375, melanoma, 72 hours
Procedure: as §1, §2, §11, §3, §4, §5, §6, §7, §8, §9, §10

BxPC3 = assay: as above; format: cell-based; conditions: Homo sapiens, BXPC-3, BxPC3, pancreas, 72 hours
Procedure: as §1, §2, §11, §3, §4, §5, §6, §7, §8, §9, §10

CFPAC-1 = assay: as above; format: cell-based; conditions: Homo sapiens, CFPAC-1, pancreas, 72 hours
Procedure: as §1, §2, §11, §3, §4, §5, §6, §7, §8, §9, §10

A2058 = assay: as above; format: cell-based; conditions: Homo sapiens, A2058, melanoma, 72 hours
Procedure: as §1, §2, §11, §3, §4, §5, §6, §7, §8, §9, §10

IPC298 = assay: as above; format: cell-based; conditions: Homo sapiens, IPC-298, IPC298, melanoma, 72 hours
Procedure: as §1, §2, §11, §3, §4, §5, §6, §7, §8, §9, §10

purified tubulin = biological target: T1, purified tubulin (Sus scrofa, UniProt P02550+P02554); assay: Effect on the polymerization of purified tubulin (turbidimetry at 350 nm); format: biochemical, pig; conditions: 2.4 μM tubulin, 37° C.
T1 construct: Tubulin is prepared from pig brain; from tissue; host or cells: pig brain
Procedure: FIG. 1. Study of the innovative effect of compounds of the selection patent on the polymerization of purified tubulin. This is a comparative study of the effect on the polymerization of purified tubulin by compounds of the selection patent compared to that of the compounds of the patent FR 2,921,927. Polymerized tubulin absorbs at 350 nm.
Tubulin is prepared from pig brain according to the purification process described by Williams and Lee (1982). Tubulin polymerization is monitored by turbidimetry at 350 nm with an MC2 spectrophotometer (Safas, Monaco) equipped with a heat-jacketed cuvette holder. The reaction mixture was prepared at 0° C., and contains PEM buffer, 25% glycerol (v/v), 1 mM GTP, and 2.4 μM tubulin. The GTP and the tubulin are added at the last minute. […] The same volume of DMSO alone was used as a negative control. The final volume of the sample is […]. The reaction is initiated by placing the cuvette in the cell compartment of the spectrophotometer thermostated at 37° C. Ice is added 45 minutes later to launch depolymerization in order to confirm the specificity of the signal.

T1 sequence (P02550 whole entry): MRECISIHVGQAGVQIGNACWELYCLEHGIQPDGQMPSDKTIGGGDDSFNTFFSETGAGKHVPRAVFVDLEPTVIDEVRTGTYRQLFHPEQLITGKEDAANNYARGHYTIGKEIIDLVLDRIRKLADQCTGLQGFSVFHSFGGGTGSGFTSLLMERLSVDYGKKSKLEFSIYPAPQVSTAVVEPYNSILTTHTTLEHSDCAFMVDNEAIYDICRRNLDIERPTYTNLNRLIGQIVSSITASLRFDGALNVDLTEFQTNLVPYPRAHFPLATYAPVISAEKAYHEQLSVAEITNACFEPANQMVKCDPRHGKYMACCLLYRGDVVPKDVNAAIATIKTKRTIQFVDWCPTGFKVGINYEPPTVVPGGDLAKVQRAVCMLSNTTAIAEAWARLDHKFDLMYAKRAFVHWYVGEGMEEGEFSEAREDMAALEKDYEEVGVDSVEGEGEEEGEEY
T1 sequence (P02554 whole entry): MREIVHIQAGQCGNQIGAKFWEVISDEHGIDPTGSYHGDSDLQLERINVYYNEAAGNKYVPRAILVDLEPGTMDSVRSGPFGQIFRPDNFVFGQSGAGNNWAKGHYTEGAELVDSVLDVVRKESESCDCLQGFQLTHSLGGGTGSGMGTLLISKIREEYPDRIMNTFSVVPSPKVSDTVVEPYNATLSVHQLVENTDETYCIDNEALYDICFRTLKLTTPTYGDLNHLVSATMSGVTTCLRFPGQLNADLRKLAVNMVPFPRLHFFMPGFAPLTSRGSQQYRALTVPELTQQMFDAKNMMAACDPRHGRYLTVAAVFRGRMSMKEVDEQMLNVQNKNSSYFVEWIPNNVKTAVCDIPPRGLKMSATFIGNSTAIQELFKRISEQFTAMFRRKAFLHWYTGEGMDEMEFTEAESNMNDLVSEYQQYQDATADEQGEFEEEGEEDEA

O=C(CNc1nc2ccccc2n2c(-c3ccc(O)c(O)c3)cnc12)NC(CO)(CO)CO [EAPB 02310]
IC50 (human cancer cell lines; Homo sapiens): > 10000 nM

COc1ccc(-c2cnc3c(NC(C)C(=O)OC(C)(C)C)nc4ccccc4n23)cc1OC (stereo not drawn) [EAPB 02218]
IC50 (human cancer cell lines; Homo sapiens): > 10000 nM

COc1ccc(-c2cnc3c(NCCCCCCNC(=O)OC(C)(C)C)nc4ccccc4n23)cc1OC [EAPB 02212, tert-Butyl (6-((1-(3,4-dimethoxyphenyl)imidazo[1,2-a]quinoxalin-4-yl)amino)hexyl)carbamate]
IC50 (human cancer cell lines; Homo sapiens): > 10000 nM

CNc1nc2ccc(OC(F)(F)F)cc2n2c(-c3ccc(O)c(O)c3)cnc12 [EAPB 02303-8b]
IC50 (human cancer cell lines; Homo sapiens): > 10000 nM

COc1ccc(-c2cnc3c(NC(CC(C)C)C(=O)OC(C)(C)C)nc4ccccc4n23)cc1OC (stereo not drawn) [EAPB 02222]
IC50 (human cancer cell lines; Homo sapiens): > 10000 nM

Nc1nc2ccccc2n2c(-c3ccc(O)c(O)c3)cnc12 [EAPB02302, 1-(3,4-Dihydroxyphenyl)imidazo[1,2-a]quinoxalin-4-amine]
EC50 (HepG2): 267 nM
EC50 (PF382): 29 nM
EC50 (Calu-1): 14 nM
EC50 (PC-3): 56 nM
EC50 (T-47D): 78 nM
EC50 (LoVo): 44 nM
EC50 (Capan-1): 206 nM
EC50 (MEWO): 10 nM
EC50 (COLO-205): 44 nM
EC50 (AsPC-1): 1820 nM
EC50 (A375): 60 nM
EC50 (BxPC3): 25 nM
EC50 (CFPAC-1): 67 nM
EC50 (A2058): 13 nM
EC50 (IPC298): 75 nM

Oc1ccc(-c2cnc3c(N4CCNCC4)nc4ccccc4n23)cc1O [EAPB0 2308, 4-(4-(Piperazin-1-yl)imidazo[1,2-a]quinoxalin-1-yl)benzene-1,2-diol]
IC50 (human cancer cell lines; Homo sapiens): > 10000 nM

NCCCNc1nc2ccccc2n2c(-c3ccc(O)c(O)c3)cnc12 [EAPB 02309, 4-(4-((3-Aminopropyl)amino)imidazo[1,2-a]quinoxalin-1-yl)benzene-1,2-diol]
IC50 (human cancer cell lines; Homo sapiens): 5590 nM

CNc1nc2cc(C#N)ccc2n2c(-c3ccc(O)c(O)c3)cnc12 [EAPB 02303-7c]
IC50 (human cancer cell lines; Homo sapiens): 6390 nM

CNc1nc2ccccc2n2c(-c3cccc(OC)c3)cnc12 [EAPB0503, 1-(3-methoxyphenyl)-N-methylimidazo[1,2-a]quinoxalin-4-amine, reference compound]
EC50 (HepG2): 1360 nM
EC50 (PF382): 205 nM
EC50 (Calu-1): 196 nM
EC50 (PC-3): 537 nM
EC50 (T-47D): 198 nM
EC50 (LoVo): 89 nM
EC50 (Capan-1): 561 nM
EC50 (MEWO): 125 nM
EC50 (COLO-205): 201 nM
EC50 (AsPC-1): 2800 nM
EC50 (A375): 383 nM
EC50 (BxPC3): 159 nM
EC50 (CFPAC-1): 598 nM
EC50 (A2058): 185 nM
EC50 (IPC298): 469 nM
Effect on polymerization of purified tubulin (absorbance level at 350 nm) (purified tubulin): decreases the absorbance level

COc1ccc(-c2cnc3c(NCCNC(=O)OC(C)(C)C)nc4ccccc4n23)cc1OC [EAPB 02211, tert-Butyl (2-((1-(3,4-dimethoxyphenyl)imidazo[1,2-a]quinoxalin-4-yl)amino)ethyl)carbamate]
IC50 (human cancer cell lines; Homo sapiens): > 10000 nM

NCCNc1nc2ccccc2n2c(-c3ccc(O)c(O)c3)cnc12 [EAPB 02306s, 2-((1-(3,4-Dihydroxyphenyl)imidazo[1,2-a]quinoxalin-4-yl)amino)ethylammonium chloride]
IC50 (human cancer cell lines): 1700 nM

NCCNc1nc2ccccc2n2c(-c3ccc(O)c(O)c3)cnc12 [EAPB 02306, 4-(4-((2-Aminoethyl)amino)imidazo[1,2-a]quinoxalin-1-yl)benzene-1,2-diol]
IC50 (human cancer cell lines; Homo sapiens): 1280 nM

CNc1nc2cc(C(F)(F)F)ccc2n2c(-c3ccc(O)c(O)c3)cnc12 [EAPB 02303-7a, 4-(4-(Methylamino)-7-(trifluoromethyl)imidazo[1,2-a]quinoxalin-1-yl)benzene-1,2-diol]
IC50 (human cancer cell lines; Homo sapiens): 6910 nM

CNc1nc2cc(OC(F)(F)F)ccc2n2c(-c3ccc(OC)c(OC)c3)cnc12 [EAPB 02203-7b, 1-(3,4-Dimethoxyphenyl)-N-methyl-7-(trifluoromethoxy)imidazo[1,2-a]quinoxalin-4-amine]
IC50 (human cancer cell lines; Homo sapiens): 3490 nM

CNc1nc2ccc(C(F)(F)F)cc2n2c(-c3ccc(O)c(O)c3)cnc12 [EAPB 02303-8a, 4-(4-(Methylamino)-8-(trifluoromethyl)imidazo[1,2-a]quinoxalin-1-yl)benzene-1,2-diol]
IC50 (human cancer cell lines; Homo sapiens): > 10000 nM

COc1ccc(-c2cnc3c(NCCCNC(=O)OC(C)(C)C)nc4ccccc4n23)cc1OC [EAPB 02214, tert-Butyl (3-((1-(3,4-dimethoxyphenyl)imidazo[1,2-a]quinoxalin-4-yl)amino)propyl)carbamate]
IC50 (human cancer cell lines; Homo sapiens): > 10000 nM

COc1ccc(-c2cnc3c(NC(C(=O)OC(C)(C)C)C(C)C)nc4ccccc4n23)cc1OC (stereo not drawn) [EAPB 02220]
IC50 (human cancer cell lines; Homo sapiens): > 10000 nM

CNc1nc2ccc(C(F)(F)F)cc2n2c(-c3ccc(OC)c(OC)c3)cnc12 [EAPB 02203-8a, 1-(3,4-Dimethoxyphenyl)-N-methyl-8-(trifluoromethyl)imidazo[1,2-a]quinoxalin-4-amine]
IC50 (human cancer cell lines; Homo sapiens): > 10000 nM

CNc1nc2ccccc2n2c(Br)cnc12 [CPA 8, 1-Bromo-N-methylimidazo[1,2-a]quinoxalin-4-amine]
IC50 (human cancer cell lines; Homo sapiens): 2350 nM

CNc1nc2ccccc2n2c(-c3ccc(OC)c(OC)c3)cnc12 [EAPB 02203, 1-(3,4-Dimethoxyphenyl)-N-methylimidazo[1,2-a]quinoxalin-4-amine]
IC50 (human cancer cell lines; Homo sapiens): 193 nM

CNc1nc2cc(OC(F)(F)F)ccc2n2c(-c3ccc(O)c(O)c3)cnc12 [EAPB 02303-7b, 4-(4-(Methylamino)-7-(trifluoromethoxy)imidazo[1,2-a]quinoxalin-1-yl)benzene-1,2-diol]
IC50 (human cancer cell lines; Homo sapiens): 199 nM

NCCCCCCNc1nc2ccccc2n2c(-c3ccc(O)c(O)c3)cnc12 [EAPB 02307, 4-(4-((6-Aminohexyl)amino)imidazo[1,2-a]quinoxalin-1-yl)benzene-1,2-diol]
IC50 (human cancer cell lines; Homo sapiens): 5690 nM

COc1ccc(-c2cnc3c(N4CCN(C(=O)OC(C)(C)C)CC4)nc4ccccc4n23)cc1OC [EAPB 02213, tert-Butyl 4-(1-(3,4-dimethoxyphenyl)imidazo[1,2-a]quinoxalin-4-yl)piperazine-1-carboxylate]
IC50 (human cancer cell lines; Homo sapiens): > 10000 nM

CNc1nc2ccccc2n2ccnc12 [PED 26, N-Methylimidazo[1,2-a]quinoxalin-4-amine]
IC50 (human cancer cell lines; Homo sapiens): > 10000 nM
